# Values joined by “and” are separate entries in the source; they are usually repeats but may differ in a detail not shown here. Equal entries are not always repeated.
# Tests used:
# S. aureus NCTC 5655 [1] = experiment: microbe, parasite or virus in culture; format: cell-based; conditions: Staphylococcus aureus, NCTC5655, Erythrocyte, in Ovis aries, read-out: IC50 (antihemolytic)
# S. aureus 8325-4 [2] = experiment: microbe, parasite or virus in culture; format: cell-based; conditions: Staphylococcus aureus, 83254, Erythrocyte, in Ovis aries, read-out: IC50 (antihemolytic)
# S. aureus NCTC 5655 [3] = experiment: microbe, parasite or virus in culture; format: cell-based, Staphylococcus aureus; conditions: for MBC: Staphylococcus aureus, NCTC5655, 24 h, read-out: Minimal bactericidal concentration MBC
# S. aureus 8325-4 [4] = experiment: microbe, parasite or virus in culture; format: cell-based, Staphylococcus aureus; conditions: for MBC: Staphylococcus aureus, 83254, 24 h, read-out: Minimal bactericidal concentration MBC
# erythrocyte membrane = format: cell-based, sheep
# [5] = biological target: T1, S. aureus α-hemolysin (αHL) (Staphylococcus aureus, UniProt P09616); conditions: sheep
# T1 sequence (P09616 27-319 limits assumed): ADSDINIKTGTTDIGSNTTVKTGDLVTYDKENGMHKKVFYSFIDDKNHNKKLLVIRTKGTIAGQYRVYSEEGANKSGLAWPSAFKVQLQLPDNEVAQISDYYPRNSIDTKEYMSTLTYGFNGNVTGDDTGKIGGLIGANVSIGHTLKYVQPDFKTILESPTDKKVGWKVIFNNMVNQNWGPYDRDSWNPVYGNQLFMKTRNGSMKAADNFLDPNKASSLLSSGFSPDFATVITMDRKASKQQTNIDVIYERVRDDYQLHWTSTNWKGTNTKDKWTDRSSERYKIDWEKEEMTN
# [6] = biological target: T1, S. aureus α-hemolysin (αHL); experiment: cell-based
SMILES,IC50 (S. aureus NCTC 5655 [1]),IC50 (S. aureus 8325-4 [2]),Minimal bactericidal concentration MBC (S. aureus NCTC 5655 [3]),MBC (S. aureus NCTC 5655 [3]),Minimal bactericidal concentration MBC (S. aureus 8325-4 [4]),MBC (S. aureus 8325-4 [4]),order parameter S/S0 (erythrocyte membrane),increase of IC50 after washing of erythrocytes [5],IC50 [6]
"O=C(OC1OC2COC(=O)c3cc(Oc4c(C(=O)O)cc(O)c(O)c4O)c(O)c(O)c3-c3c(cc(O)c(O)c3O)C(=O)OC2C(O)C1OC(=O)c1cc(O)c(O)c(O)c1)c1cc(O)c(O)c(O)c1 [Compound T4, 1,2-di-O-galloyl-4,6-valoneoyl-β-D-glucose]",59.5 ± 9.6 µM,60.4 ± 3.3 µM,75 µM,100 µM,75 µM,100 µM,1.074 ± 0.059 and 0.885 ± 0.073,approximately 40 fold,14.5 ± 1.1 µM
"O=C(OCC1OC(OC(=O)c2cc(O)c(O)c(O)c2)C(OC(=O)c2cc(O)c(O)c(O)c2)C(OC(=O)c2cc(O)c(O)c(OC(=O)c3cc(O)c(O)c(O)c3)c2)C1OC(=O)c1cc(O)c(O)c(O)c1)c1cc(O)c(O)c(OC(=O)c2cc(O)c(O)c(O)c2)c1 [Compound T1, 3,6-bis-O-di-O-galloyl-1,2,4-tri-O-galloyl-β-D-glucose]",7.26 ± 0.29 µM,8.7 ± 0.81 µM,–,25 µM,–,50 µM,–,–,2.94 ± 1.45 µM
"O=C(OC1C(O)C(CO)OC2OC(=O)c3cc(Oc4c(C(=O)O)cc(O)c(O)c4O)c(O)c(O)c3-c3c(cc(O)c(O)c3O)C(=O)OC21)c1cc(O)c(O)c(O)c1 [Compound T3, 3-O-galloyl-1,2-valoneoyl-β-D-glucose]",90.6 ± 22.7 µM,52.2 ± 1.2 µM,–,100 µM,–,100 µM,0.947 ± 0.028 and 0.911 ± 0.042,approximately 40 fold,27.5 ± 1.06 µM
"O=C(OCC1OC(OC(=O)c2cc(O)c(O)c(O)c2)C(OC(=O)c2cc(O)c(O)c(O)c2)C(OC(=O)c2cc(O)c(O)c(O)c2)C1OC(=O)c1cc(O)c(O)c(O)c1)c1cc(O)c(O)c(O)c1 [Compound T2, 1,2,3,4,5-penta-O-galloyl-β-D-glucose]",13 ± 1.18 µM,22.4 ± 2.8 µM,–,50 µM,–,75 µM,1.267 ± 0.0398 and 0.662 ± 0.072,–,3.52 ± 1.37 µM

# — publication PMC7341856 (Scientific Reports, 2020)
